Assay results reported in patent US20070265211A1, “Novel composition and method effective in inhibiting the atherogenic process” (priority 2006, published 2007).

Tests used:
[1] = tested on: vascular smooth muscle cells (VSMC) from guinea-pig aorta; details: 0.5-2.0 mM ascorbate; direct and matrix-mediated effects; cited from earlier work
[2] = tested on: Human aortic smooth muscle cells; experiment: SMC proliferation by [3H]-thymidine incorporation into cellular DNA; type: cell-based; details: physiologically relevant concentration
Description: Human aortic smooth muscle cells (SMC, obtained from Clonetics) were cultured in DMEM (Dulbecco's modified Eagle's medium), supplemented with 10% fetal bovine serum, penicillin (100 μg/ml) and streptomycin (100 μg/ml) at 37° C. in a humidified atmosphere containing 5% CO2, and were split 1:3 to 1:5 upon reaching the confluence. SMC at passages 5-8 were used in experiments. […] SMC proliferation was assayed by [3H]-thymidine incorporation into cellular genetic material. Cells were plated in 24-well plates at a density of 10,000 cells per cm^2 in 0.5 ml of DMEM supplemented with 2% FBS. The attached cells were supplied every 24 hours with fresh growth medium plus additions, as specified in the protocols. Test agents included the nutrient mixture and individual components. […] Cell proliferation was measured 3 days later by the addition of 1 pCi/ml [3H]-thymidine to the cell culture for the last 4 hours of the experiment. […] Samples were mixed with scintillation fluid and counted using a liquid scintillation counter (model 6500 LS, Beckman Instruments, USA). Cellular DNA-incorporated radioactivity was expressed as d/min per well. In some wells cells were stained with Hematoxylin/Eosin and cell nucleus were counted under microscope in standard way chosen views covering total 65% of the well area. Cell counting data expressed as cell number per well.

Row | Compound | Proliferation of VSMC from guinea-pig aorta [1] | Cultured human aortic SMC growth rate (rate of cellular DNA synthesis) [2]
1 | O=C1O[C@H]([C@@H](O)CO)C(O)=C1O [ascorbate, ascorbic acid] | dose-dependent decreased proliferation | –
2 | O=C(O[C@@H]1Cc2c(O)cc(O)cc2O[C@@H]1c1cc(O)c(O)c(O)c1)c1cc(O)c(O)c(O)c1 [epigallocatechin gallate] | – | significantly reduced
